Reference: PMC9090415, “Discovery of small molecule inhibitors of Plasmodium falciparum apicoplast DNA polymerase” (Journal of Enzyme Inhibition and Medicinal Chemistry, 2022)

Target: P. falciparum apicoplast DNA polymerase (Pf-apPOL) (Plasmodium falciparum, UniProt Q8ILY1)
Experiment: Fluorescence-based high-throughput DNA polymerase assay (molecular beacon), primary screen and dose-response
Type: biochemical
Procedure: The HT assay employs a molecular beacon, a stem-loop DNA template with a Cy3 dye and the Black Hole Quencher on the 3′ and 5′ ends of the DNA, respectively. Pf-apPOL concentration is based on a calculated absorptivity of ε280 = 56750 M^−1 cm^−1. Reactions were carried out at 25 °C, using Corning 3575 […] (well-volume, 20 µL). Assays testing for compound inhibition composed of reaction buffer (pH 7.9 in 50 mM potassium acetate, 20 mM Tris-acetate and 10 mM magnesium acetate), Pf-apPOL (20 nM), DNA substrate (20 nM), dNTPs (6 µM), and compound (10 µM in DMSO). The DNA and nucleotide substrates (dNTPs) were at concentrations of 20 nM and 6 µM, respectively, in the assay. Pf-apPOL was incubated in the reaction buffer with dNTPs and the compound of interest (10 µM, in the assay) at 25 °C for 10 min. The DNA substrate was then added and the reaction was allowed to proceed for 90 min at 25 °C.
Each assay plate contained 16 negative controls (no Pf-apPOL, DMSO present) and 16 positive controls (Pf-apPOL present, no DMSO). The fluorescence of each well was determined using a BioTek Synergy Neo fluorescence plate reader using excitation and emission wavelengths of 555 and 570 nm, respectively.
In the above, Min is the average of fluorescence emission of the negative controls (substrate only), Max the average fluorescence emission from the positive controls (enzyme + substrate), and Test the emission from the assays in the presence of compounds (enzyme + compound + substrates). […] […] The IC50 of each compound was determined using Equation (2): (2) IC50= Vmax/(1+ (I/IC50)^n)
In the above, n measures cooperativity, with n > 1 indicating synergistic binding of more than a single molecule of the compound.
To identify apPOL inhibitors we utilised our previously developed high-throughput DNA polymerase assay. The HT assay is based on a molecular beacon DNA template that forms a stem-loop with a Cy3 dye and the Black Hole Quencher on the 3′ and 5′ ends of the DNA, respectively. DNA polymerase activity extends an annealed primer through the stem region, displacing the fluorophore from the quencher, thereby increasing its fluorescence (Figure 1(A)). The assay accurately recapitulates the kinetic behaviour of apPOL, as measured through more conventional low-throughput gel-based assays. The Z′ factor for the assay described here was 0.9 across all plates (data not shown).
Figure 1. High-throughput screening. (A) The fluorescent-based DNA polymerase assay used to screen the compound libraries. The DNA template strand is a hairpin loop with a primer annealed to the loop. The 3’ end of the primer is 11 bases away from the 6 bp duplex. Strand displacement activity of the DNA polymerase separates the Cy3 dye from the Black hole quencher leading to an increase in fluorescent signal. (B) The high-throughput assay workflow. The DNA polymerase is incubated with […] compound for 10 min prior to addition of the hairpin substrate. The reaction is quenched at 3 different time points and the fluorescent signal is measured and % inhibition is determined using the provided equation.

Chain of P. falciparum apicoplast DNA polymerase (Pf-apPOL) (Q8ILY1 entry or part of it): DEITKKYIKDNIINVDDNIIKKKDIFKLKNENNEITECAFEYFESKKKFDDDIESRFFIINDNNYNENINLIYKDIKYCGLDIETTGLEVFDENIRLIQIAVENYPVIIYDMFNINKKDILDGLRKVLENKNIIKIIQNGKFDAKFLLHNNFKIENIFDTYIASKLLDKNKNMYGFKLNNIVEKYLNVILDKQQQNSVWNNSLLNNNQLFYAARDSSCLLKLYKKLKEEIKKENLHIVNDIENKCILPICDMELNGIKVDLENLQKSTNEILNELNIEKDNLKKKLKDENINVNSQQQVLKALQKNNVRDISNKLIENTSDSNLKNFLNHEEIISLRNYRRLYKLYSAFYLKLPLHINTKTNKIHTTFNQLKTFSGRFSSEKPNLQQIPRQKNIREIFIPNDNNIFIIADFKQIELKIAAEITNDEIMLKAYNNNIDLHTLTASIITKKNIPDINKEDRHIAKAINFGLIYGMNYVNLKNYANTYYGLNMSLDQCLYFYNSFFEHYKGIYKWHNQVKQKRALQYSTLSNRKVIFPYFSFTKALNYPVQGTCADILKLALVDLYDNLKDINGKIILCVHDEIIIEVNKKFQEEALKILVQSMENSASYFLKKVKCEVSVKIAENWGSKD

## COc1ccccc1CCC(=O)N1CCc2c(nc3cc(-c4ccccc4)[nH]n3c2=O)C1 [Molecule 7, COc1ccccc1CCC(=O)N1CCc2c(C1)nc1n(c2=O)[nH]c(c1)c1ccccc1]
'DNA Pol'; screening value, unit not given; 90 min, 10 µM
  DNA Pol: 40
DRC-1; 10'; concentration 2.5
  % inhibition Apo pol 10': 2.75%
DRC-1; 10'; concentration 5
  % inhibition Apo pol 10': 18%
DRC-1; 10'; concentration 10
  % inhibition Apo pol 10': 67%
DRC-1; 10'; concentration 20
  % inhibition Apo pol 10': 82%
DRC-1; 10'; concentration 40
  % inhibition Apo pol 10': 78%
DRC-1; 10'; concentration 80
  % inhibition Apo pol 10': 59%
DRC-1; 90'; concentration 2.5
  % inhibition Apol 90': 0.0541%
DRC-1; 90'; concentration 5
  % inhibition Apol 90': 9%
DRC-1; 90'; concentration 10
  % inhibition Apol 90': 54%
DRC-1; 90'; concentration 20
  % inhibition Apol 90': 73%
DRC-1; 90'; concentration 40
  % inhibition Apol 90': 72%
DRC-1; 90'; concentration 80
  % inhibition Apol 90': 63%
DRC-1; 180'; concentration 2.5
  % inhibition apPOL 180': -3.58%
DRC-1; 180'; concentration 5
  % inhibition apPOL 180': 1.16%
DRC-1; 180'; concentration 10
  % inhibition apPOL 180': 38%
DRC-1; 180'; concentration 20
  % inhibition apPOL 180': 59%
DRC-1; 180'; concentration 40
  % inhibition apPOL 180': 58%
DRC-1; 180'; concentration 80
  % inhibition apPOL 180': 49%
DRC-2, 5', concentration 2.5
  % inhibition Apo pol 5': 6%
DRC-2, 5', concentration 5
  % inhibition Apo pol 5': 26%
DRC-2, 5', concentration 10
  % inhibition Apo pol 5': 48%
DRC-2, 5', concentration 20
  % inhibition Apo pol 5': 51%
DRC-2, 5', concentration 40
  % inhibition Apo pol 5': 44%
DRC-2, 5', concentration 80
  % inhibition Apo pol 5': 21%
DRC-2, 40', concentration 2.5
  % inhibition Apol 40': 5.58%
DRC-2, 40', concentration 5
  % inhibition Apol 40': 30%
DRC-2, 40', concentration 10
  % inhibition Apol 40': 57%
DRC-2, 40', concentration 20
  % inhibition Apol 40': 64%
DRC-2, 40', concentration 40
  % inhibition Apol 40': 61%
DRC-2, 40', concentration 80
  % inhibition Apol 40': 44%
DRC-2, 90', concentration 2.5
  % inhibition ApPOL 90': 5%
DRC-2, 90', concentration 5
  % inhibition ApPOL 90': 28%
DRC-2, 90', concentration 10
  % inhibition ApPOL 90': 57%
DRC-2, 90', concentration 20
  % inhibition ApPOL 90': 65%
DRC-2, 90', concentration 40
  % inhibition ApPOL 90': 62%
DRC-2, 90', concentration 80
  % inhibition ApPOL 90': 47%
DRC-2, 180', concentration 2.5
  % inhibition apPOL 180': 3%
DRC-2, 180', concentration 5
  % inhibition apPOL 180': 21%
DRC-2, 180', concentration 10
  % inhibition apPOL 180': 48%
DRC-2, 180', concentration 20
  % inhibition apPOL 180': 59%
DRC-2, 180', concentration 40
  % inhibition apPOL 180': 55%
DRC-2, 180', concentration 80
  % inhibition apPOL 180': 41%
Conc 5 (unit not given); 180'; DRC-2
  % inhibition apPOL 180': 21%
Conc 10 (unit not given); 5'; DRC-2
  % inhibition Apo pol 5': 48%
Conc 10 (unit not given); 40'; DRC-2
  % inhibition Apol 40': 57%
Conc 10 (unit not given); 90'; DRC-2
  % inhibition ApPOL 90': 57%
Conc 10 (unit not given); 180'; DRC-2
  % inhibition apPOL 180': 48%
Conc 20 (unit not given); 180'; DRC-2
  % inhibition apPOL 180': 59%
Conc 20 (unit not given); 180'; first dose-response set
  % inhibition apPOL 180': 59%
Conc 40 (unit not given); 5'; DRC-2
  % inhibition Apo pol 5': 44%
Conc 80 (unit not given); 5'; DRC-2
  % inhibition Apo pol 5': 21%
Conc 80 (unit not given); 10'; first dose-response set
  % inhibition Apo pol 10': 59%
Conc 80 (unit not given); 40'; DRC-2
  % inhibition Apol 40': 44%
Primary screen hit value, DNA Pol (186 hits); 90 min, 10 µM
  DNA Pol: 40

## Cc1ncc(CSc2nc(C(C)(C)C)cs2)c(CO)c1O [KU0264007]
186 hits, value of the hit list (primary screen); unit not given; 90 min, 10 µM
  DNA Pol: 70
DRC-1; 10'; concentration 2.5
  % inhibition Apo pol 10': 0.8986%
DRC-1; 10'; concentration 5
  % inhibition Apo pol 10': 5.699%
DRC-1; 10'; concentration 10
  % inhibition Apo pol 10': 22.1813%
DRC-1; 10'; concentration 20
  % inhibition Apo pol 10': 37.8368%
DRC-1; 10'; concentration 40
  % inhibition Apo pol 10': 57.9296%
DRC-1; 10'; concentration 80
  % inhibition Apo pol 10': 69.8809%
DRC-1; 90'; concentration 2.5
  % inhibition Apol 90': -0.5136%
DRC-1; 90'; concentration 5
  % inhibition Apol 90': -0.3111%
DRC-1; 90'; concentration 10
  % inhibition Apol 90': 8.991%
DRC-1; 90'; concentration 20
  % inhibition Apol 90': 19.9803%
DRC-1; 90'; concentration 40
  % inhibition Apol 90': 38.5024%
DRC-1; 90'; concentration 80
  % inhibition Apol 90': 54.4417%
DRC-1; 180'; concentration 2.5
  % inhibition apPOL 180': -1.351%
DRC-1; 180'; concentration 5
  % inhibition apPOL 180': -5.176%
DRC-1; 180'; concentration 10
  % inhibition apPOL 180': 0.78%
DRC-1; 180'; concentration 20
  % inhibition apPOL 180': 8.562%
DRC-1; 180'; concentration 40
  % inhibition apPOL 180': 22.9628%
DRC-1; 180'; concentration 80
  % inhibition apPOL 180': 39.37%
DRC-2, 5', concentration 2.5
  % inhibition Apo pol 5': 6.56%
DRC-2, 5', concentration 5
  % inhibition Apo pol 5': 10%
DRC-2, 5', concentration 10
  % inhibition Apo pol 5': 24%
DRC-2, 5', concentration 20
  % inhibition Apo pol 5': 37%
DRC-2, 5', concentration 40
  % inhibition Apo pol 5': 45%
DRC-2, 5', concentration 80
  % inhibition Apo pol 5': 50%
DRC-2, 40', concentration 2.5
  % inhibition Apol 40': 4%
DRC-2, 40', concentration 5
  % inhibition Apol 40': 6.47%
DRC-2, 40', concentration 10
  % inhibition Apol 40': 20%
DRC-2, 40', concentration 20
  % inhibition Apol 40': 35%
DRC-2, 40', concentration 40
  % inhibition Apol 40': 47%
DRC-2, 40', concentration 80
  % inhibition Apol 40': 61%
DRC-2, 90', concentration 2.5
  % inhibition ApPOL 90': 1.8%
DRC-2, 90', concentration 5
  % inhibition ApPOL 90': 2.55%
DRC-2, 90', concentration 10
  % inhibition ApPOL 90': 14%
DRC-2, 90', concentration 20
  % inhibition ApPOL 90': 28%
DRC-2, 90', concentration 40
  % inhibition ApPOL 90': 43%
DRC-2, 90', concentration 80
  % inhibition ApPOL 90': 62%
DRC-2, 180', concentration 2.5
  % inhibition apPOL 180': -3%
DRC-2, 180', concentration 5
  % inhibition apPOL 180': -4.6%
DRC-2, 180', concentration 10
  % inhibition apPOL 180': 2.58%
DRC-2, 180', concentration 20
  % inhibition apPOL 180': 14%
DRC-2, 180', concentration 40
  % inhibition apPOL 180': 30%
DRC-2, 180', concentration 80
  % inhibition apPOL 180': 58%
DRC-2; 90'; concentration 10
  % inhibition ApPOL 90': 14%
DRC-2; 180'; concentration 20
  % inhibition apPOL 180': 14%
Primary screen value, 'DNA Pol' only; 90 min, 10 µM
  DNA Pol: 70
